Test results reported in US20060009425A1, “Oral formulations of paricalcitol” (priority 2004, published 2006).

Assays:
Format in all cases: in vivo, human
[1] = system: biochemical bone activity markers; test: Combined Phase 3 studies, biochemical bone activity markers
From the text: Serum bone-specific alkaline phosphate and serum osteocalcin are considered more sensitive bone markers to evaluate degree of bone remodeling than urinary bone marker. […] These subjects received treatment with the oral formulations of the present invention or a placebo. The bone markers examined in these subjects were serum osteocalcin, serum bone-specific alkaline phosphatase, urinary pyridinoline, and deoxypyridinoline. If more than 1 biochemical bone activity marker measurement existed for a subject on a particular day, the higher measurement was considered to be that subject's biochemical bone activity marker measurement for that day. […] The Final Visit measurement was defined as the last biochemical bone activity marker measurement following the first dose of study drug.
The Week 11 Visit measurement was defined as the biochemical bone activity marker measurement on the day closest to the Week 11 scheduled visit, for which the possible measurements to choose from were those collected within 64 and 77 days following the first dose of study drug.
Changes from baseline to Week 11 Visit and to Final Visit in biochemical bone activity markers were compared between oral paricalcitol and placebo using an ANOVA with treatment as the factor on the combined Phase 3 all treated subject population (Table F). Also, the changes from baseline to Week 11 Visit and to Final Visit were compared between oral paricalcitol and placebo using an ANCOVA with baseline as the second factor on the combined Phase 3 all treated subject population (Table G).
In this example, paricalcitol capsules were evaluated in 3 double-blind, placebo-controlled multicenter studies in CKD stage 3-4 subjects with 2° HPT; 2 of these studies were conducted with TIW dosing and 1 was done with QD dosing. Subjects with eGFR (MDRD formula) 15-60 ml/min/1.73 m^2, iPTH ≧150 pg/mL, serum Ca 8.0-10.0 mg/dL and PO4≦5.2 mg/dL were randomized 1:1 and treated with paricalcitol capsule or placebo for 24 weeks. A total of 145 subjects used TIW regimen (paricalcitol: 72; placebo: 73) and 75 subjects (paricalcitol: 35; placebo: 40) used QD regimen. After the initial doses, doses were titrated based on serum Ca, P and iPTH results that were measured every 2 weeks; dose increases occurred once every 4 weeks and decreases every 2 weeks. Dosing administrations are shown below in Table 18.

[2] = system: serum parathyroid hormone (PTH) levels; test: Phase 3 placebo-controlled once daily study, iPTH reduction (Example 8)
From the text: Methodology: This was a Phase 3, prospective, randomized, placebo-controlled, double-blind, 24-week Treatment Phase, multi-center study in CKD (Stages 3 and 4) subjects with elevated PTH levels (≧150 pg/mL). Subjects were randomized in an equal ratio (1:1) to 1 of 2 treatment groups: Paricalcitol capsule (Group 1) and placebo (Group 2). Potential subjects underwent procedures to determine their baseline intact PTH (iPTH), calcium, and phosphorus levels for eligibility to receive treatment.
(§1) During the Treatment Phase, subjects were to self-administer study drug once daily for a total of 24 weeks. The initial dose was 1 or 2 mcg (depending on baseline iPTH levels). Procedures to be performed during the Treatment Phase included vital signs, chemistry and hematology, urinary pyridinoline, urinary deoxypyridinoline, serum bone-specific alkaline phosphatase, serum osteocalcin, urinalysis, spot urine for calcium/creatinine ratio, and recording of adverse events and concurrent medications. Serum iPTH, calcium, phosphorus, and albumin were measured every 2 weeks. Dose adjustments were to be made according to these chemistry results for iPTH, calcium, and phosphorus. Doses may have been increased in 1 mcg increments every 4 weeks. Dose reductions were to occur according to a protocol-specified algorithm. However, dosing could have been adjusted any time if, in the judgment of the Investigator, a risk to subject safety existed.
Efficacy: The primary efficacy endpoint was the achievement of 2 consecutive >30% decreases from baseline iPTH levels.
The secondary efficacy analyses include change and percent change from baseline analyses in iPTH and change from baseline analyses in biochemical bone activity markers.
(§2) The Intent-To-Treat population (Full Analysis Set) was defined as all randomized subjects with a baseline iPTH and at least 2 on-treatment iPTH measurements. This population was used in the primary efficacy analysis.

[3] = system: serum parathyroid hormone (PTH) levels; test: Phase 3 placebo-controlled TIW study, iPTH reduction (Example 7)
From the text: Methodology: This was a Phase 3, prospective, randomized, placebo-controlled, double-blind, 24-week Treatment Phase, multi-center study in CKD (Stages 3 and 4) subjects with elevated PTH levels (≧150 pg/mL). Subjects were randomized in an equal ratio (1:1) to 1 of 2 treatment groups: paricalcitol capsule (Group 1) and placebo (Group 2). Potential subjects underwent procedures to determine their baseline intact PTH (iPTH), calcium, and phosphorus levels for eligibility to receive treatment.
as §1, with “drug 3 times weekly, on Monday, Wednesday and Friday,” for “drug once daily”, “was 2” for “was 1”, “or 4” for “or 2”, “in 2” for “in 1”, “weeks.” for “weeks. Dose reductions were to occur according to a protocol-specified algorithm. However, dosing could have been adjusted any time if, in the judgment of the Investigator, a risk to subject safety existed.”
Efficacy: The primary efficacy endpoint was the achievement of 2 consecutive ≧30% decreases from baseline iPTH levels. The secondary efficacy analyses include change and percent change from baseline analyses in iPTH and change from baseline analyses in biochemical bone markers.
as §2

[4] = Phase 3 studies combined, all treated subjects
[5] = Phase 3 studies combined, all treated subjects, listed as Oral Paricalcitol
[6] = Phase 3 studies combined, all treated subjects, listed as oral paricalcitol
[7] = Phase 3 studies, TIW Treatment Regimen

Compound: C[C@H](/C=C/[C@H](C)C(C)(C)O)[C@H]1CC[C@H]2/C(=C/C=C3C[C@@H](O)C[C@H](O)C3)CCC[C@]12C [Paricalcitol, 19-nor-1α,3β,25-trihydroxy-9,10-secoergosta-5(Z); 7(E),22(E)-triene]
- Serum Osteocalcin, Change from Baseline (SE) to Week 11 [1, 4]: −3.94 (2.431) ng/mL
- Urinary Deoxypyridinoline, Change from Baseline (SE) to Final [1, 4]: −0.0058 (0.00514) nmol/mg Creat
- Urinary Pyridinoline, Change from Baseline (SE) to Week 11 [1, 4]: −5.21 (1.938) nmol/mmol Creat
- Serum Bone-Specific Alkaline Phosphatase, Change from Baseline (SE) to Final [1, 5]: −7.890 (0.7596) mcg/L
- Serum Bone-Specific Alkaline Phosphatase, Change from Baseline (SE) to Week 11 [1, 5]: −5.024 (0.6279) mcg/L
- Serum Osteocalcin, Change from Baseline (SE) to Final [1, 5]: −21.64 (2.706) ng/mL
- Urinary Deoxypyridinoline, Change from Baseline (SE) to Week 11 [1, 5]: −0.0155 (0.00433) nmol/mg Creat
- Urinary Pyridinoline, Change from Baseline (SE) to Final [1, 5]: −3.61 (1.896) nmol/mmol Creat
- Serum Bone-Specific Alkaline Phosphatase, Change from Baseline (SE) to Final [1, 6]: -7.89 µg/L
- Serum Bone-Specific Alkaline Phosphatase, Change from Baseline (SE) to Week 11 [1, 6]: -5.024 µg/L
- Serum Osteocalcin, Change from Baseline (SE) to Final [1, 6]: -21.64 ng/mL
- Urinary Deoxypyridinoline, Change from Baseline (SE) to Week 11 [1, 6]: −0.0155 nmol/mg Creat
- Urinary Pyridinoline, Change from Baseline (SE) to Final [1, 6]: −3.61 nmol/mmol Creat
- Serum Bone-Specific Alkaline Phosphatase, Change from Baseline (SE) to Final [1, 7]: −8.043 (0.9033) mcg/L
- Serum Bone-Specific Alkaline Phosphatase, Change from Baseline (SE) to Week 11 [1, 7]: −4.869 (0.7835) mcg/L
- Serum Osteocalcin, Change from Baseline (SE) to Final [1, 7]: −18.96 (2.944) ng/mL
- Serum Osteocalcin, Change from Baseline (SE) to Week 11 [1, 7]: −5.53 (2.720) ng/mL
- Urinary Deoxypyridinoline, Change from Baseline (SE) to Final [1, 7]: −0.0130 (0.00357) nmol/mg Creat
- Urinary Deoxypyridinoline, Change from Baseline (SE) to Week 11 [1, 7]: −0.0129 (0.00426) nmol/mg Creat
- Urinary Pyridinoline, Change from Baseline (SE) to Final [1, 7]: −5.47 (1.789) nmol/mmol Creat
- Urinary Pyridinoline, Change from Baseline (SE) to Week 11 [1, 7]: −5.19 (2.213) nmol/mmol Creat
- Bone Spec. Alk Phos, Mean Change from Baseline ([1]; QD Regimen, N = 33 (Table 20)): −7.6 (1.40) mcg/L
- Serum Osteocalcin, Mean Change from Baseline ([1]; QD Regimen, N = 33 (Table 20)): −27.1 (5.54) ng/mL
- Serum Osteocalcin, Mean Change from Baseline ([1]; TIW Regimen, N = 67 (Table 20)): −19.0 (2.94) ng/mL
- Bone Spec. Alk Phos, Mean Change from Baseline ([1]; TIW Regimen, N = 68 (Table 20)): −8.0 (0.90) mcg/L
- subjects with 4 consecutive ≧30% decreases from baseline in iPTH ([2]; 23/33, exploratory analysis): 70%
- subjects with 2 consecutive ≧30% decreases from baseline in iPTH ([2]; 30/33, once daily, 24 weeks, CKD Stages 3 and 4): 91%
- maximum decrease from baseline in iPTH ([2]; observed at Week 23): −52.4%
- 30% mean reduction in iPTH occurred by ([2]; once daily): ≤ 7 Week
- mean change from baseline in iPTH at the Final Visit ([2]; once daily, 24 weeks): -46.9 pg/mL
- mean change from baseline in iPTH at the Last On-Treatment Visit ([2]; once daily, 24 weeks): -130.8 pg/mL
- percent decrease in iPTH at the Final Visit ([2]; once daily, 24 weeks): 15.2%
- percent decrease in iPTH at the Last On-Treatment Visit ([2]; once daily, 24 weeks): 50.0%
- subjects with 4 consecutive ≧30% decreases from baseline in iPTH ([3]; 26/32, exploratory analysis): 81%
- subjects with 2 consecutive ≧30% decreases from baseline in iPTH ([3]; 29/32, TIW, 24 weeks, CKD Stages 3 and 4): 91%
- 30% mean reduction in iPTH occurred by ([3]; TIW): ≤ 9 Week
- mean change from baseline in iPTH at the Final Visit ([3]; TIW, 24 weeks): -80.7 pg/mL
- mean change from baseline in iPTH at the Last On-Treatment Visit ([3]; TIW, 24 weeks): -83.1 pg/mL
- percent decrease in iPTH at the Final Visit ([3]; TIW, 24 weeks): 30.3%
- percent decrease in iPTH at the Last On-Treatment Visit ([3]; TIW, 24 weeks): 33.4%
- maximum decrease from baseline in iPTH ([3]; observed at Week 17): −48.2%
